What all share (assay type): biochemical
The target of one experiment is T1, ITK (Homo sapiens, UniProt Q08881).
T1 sequence (Q08881 1-620): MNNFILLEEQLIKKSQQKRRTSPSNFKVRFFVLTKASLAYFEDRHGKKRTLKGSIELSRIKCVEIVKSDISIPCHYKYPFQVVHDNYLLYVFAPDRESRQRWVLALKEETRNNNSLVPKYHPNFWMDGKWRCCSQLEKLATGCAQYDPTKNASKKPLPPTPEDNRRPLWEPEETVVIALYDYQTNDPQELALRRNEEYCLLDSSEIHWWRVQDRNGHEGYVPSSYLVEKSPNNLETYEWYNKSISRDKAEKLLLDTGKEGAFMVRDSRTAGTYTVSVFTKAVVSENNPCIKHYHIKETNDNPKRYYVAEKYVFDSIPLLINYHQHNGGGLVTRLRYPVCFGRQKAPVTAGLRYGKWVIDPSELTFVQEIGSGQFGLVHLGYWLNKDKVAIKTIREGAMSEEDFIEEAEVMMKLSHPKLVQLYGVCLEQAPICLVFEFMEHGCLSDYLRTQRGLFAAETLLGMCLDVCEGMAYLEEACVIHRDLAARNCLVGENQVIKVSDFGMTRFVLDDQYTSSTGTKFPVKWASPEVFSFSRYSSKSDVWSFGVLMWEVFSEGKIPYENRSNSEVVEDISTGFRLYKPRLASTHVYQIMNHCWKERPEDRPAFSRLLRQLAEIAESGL
In words: ITK IC50 kinase inhibition assay.

The target in another experiment is BTK (Homo sapiens, UniProt Q06187). In words: BTK IC50 kinase inhibition assay.
For a further experiment, the target named is T2, JAK3 (Homo sapiens, UniProt P52333).
T2 sequence (P52333 1-1124): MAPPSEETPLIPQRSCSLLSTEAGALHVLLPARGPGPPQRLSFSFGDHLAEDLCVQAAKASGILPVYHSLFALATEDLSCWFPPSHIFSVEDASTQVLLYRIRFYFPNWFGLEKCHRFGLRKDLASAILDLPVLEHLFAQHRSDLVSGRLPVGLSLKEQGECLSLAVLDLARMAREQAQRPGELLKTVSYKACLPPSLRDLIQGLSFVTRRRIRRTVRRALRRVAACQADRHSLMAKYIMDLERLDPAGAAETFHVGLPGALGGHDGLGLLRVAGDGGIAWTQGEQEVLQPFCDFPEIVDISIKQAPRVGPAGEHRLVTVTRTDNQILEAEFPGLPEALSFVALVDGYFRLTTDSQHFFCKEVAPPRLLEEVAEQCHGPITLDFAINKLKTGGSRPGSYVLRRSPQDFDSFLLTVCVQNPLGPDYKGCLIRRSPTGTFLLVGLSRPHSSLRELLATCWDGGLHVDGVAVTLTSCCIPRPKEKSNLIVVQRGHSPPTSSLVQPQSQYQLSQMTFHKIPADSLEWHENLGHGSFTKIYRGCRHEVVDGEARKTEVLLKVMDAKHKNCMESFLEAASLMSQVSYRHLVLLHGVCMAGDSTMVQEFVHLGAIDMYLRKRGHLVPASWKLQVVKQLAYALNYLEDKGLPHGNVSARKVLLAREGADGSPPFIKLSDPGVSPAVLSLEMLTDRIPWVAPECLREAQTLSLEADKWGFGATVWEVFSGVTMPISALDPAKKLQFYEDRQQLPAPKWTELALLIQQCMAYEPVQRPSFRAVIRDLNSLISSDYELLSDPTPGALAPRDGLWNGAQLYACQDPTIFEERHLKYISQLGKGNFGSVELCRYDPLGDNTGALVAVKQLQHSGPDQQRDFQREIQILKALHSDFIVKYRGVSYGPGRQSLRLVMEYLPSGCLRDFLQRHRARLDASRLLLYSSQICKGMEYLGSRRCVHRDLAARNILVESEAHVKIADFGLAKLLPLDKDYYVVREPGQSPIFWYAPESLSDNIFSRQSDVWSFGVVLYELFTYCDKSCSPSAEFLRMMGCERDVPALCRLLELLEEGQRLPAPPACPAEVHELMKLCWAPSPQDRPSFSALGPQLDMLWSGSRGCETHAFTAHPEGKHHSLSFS
Nature of the experiment: JAK3 IC50 kinase inhibition assay.

The target in another experiment is T3, TXK (Homo sapiens, UniProt P42681).
T3 sequence (P42681 1-527): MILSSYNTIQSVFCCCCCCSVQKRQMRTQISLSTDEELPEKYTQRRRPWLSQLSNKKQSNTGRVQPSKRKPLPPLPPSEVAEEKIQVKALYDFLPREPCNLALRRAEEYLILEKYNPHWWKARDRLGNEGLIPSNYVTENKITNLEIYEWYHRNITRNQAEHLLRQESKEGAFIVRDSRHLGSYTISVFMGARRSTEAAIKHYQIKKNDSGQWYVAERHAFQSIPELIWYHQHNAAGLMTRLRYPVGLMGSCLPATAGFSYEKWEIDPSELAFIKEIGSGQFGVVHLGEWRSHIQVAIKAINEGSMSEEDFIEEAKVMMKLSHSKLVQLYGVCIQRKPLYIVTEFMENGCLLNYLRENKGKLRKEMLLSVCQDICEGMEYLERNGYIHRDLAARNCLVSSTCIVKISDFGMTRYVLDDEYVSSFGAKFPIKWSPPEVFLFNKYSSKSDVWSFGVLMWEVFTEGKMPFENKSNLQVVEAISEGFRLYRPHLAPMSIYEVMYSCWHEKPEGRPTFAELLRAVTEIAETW
Nature of the experiment: TXK IC50 kinase inhibition assay.

Sequence of BTK (Q06187 whole entry): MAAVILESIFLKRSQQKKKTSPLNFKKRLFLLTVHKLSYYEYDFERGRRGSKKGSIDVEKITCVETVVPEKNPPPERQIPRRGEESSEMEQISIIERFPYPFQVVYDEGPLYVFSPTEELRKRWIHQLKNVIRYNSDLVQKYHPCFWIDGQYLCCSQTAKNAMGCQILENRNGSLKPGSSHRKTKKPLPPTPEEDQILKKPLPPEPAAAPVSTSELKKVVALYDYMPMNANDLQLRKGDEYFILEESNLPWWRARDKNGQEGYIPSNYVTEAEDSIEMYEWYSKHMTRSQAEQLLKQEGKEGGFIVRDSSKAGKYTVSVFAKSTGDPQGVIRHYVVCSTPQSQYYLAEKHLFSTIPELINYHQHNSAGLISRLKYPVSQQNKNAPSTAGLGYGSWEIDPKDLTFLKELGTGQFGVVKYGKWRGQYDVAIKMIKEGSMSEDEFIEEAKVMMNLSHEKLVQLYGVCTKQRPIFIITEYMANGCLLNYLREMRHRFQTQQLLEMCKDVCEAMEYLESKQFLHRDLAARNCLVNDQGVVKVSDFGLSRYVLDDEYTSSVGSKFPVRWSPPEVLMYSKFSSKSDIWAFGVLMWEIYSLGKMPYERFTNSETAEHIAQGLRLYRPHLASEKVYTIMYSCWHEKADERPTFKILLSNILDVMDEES

Usually IC50 stands for the midpoint of a concentration-inhibition curve. A lower IC50 goes with greater potency in that assay. Turning to `C=CC(=O)N1CC(n2nc(-c3ccc(Oc4ccccc4)cc3)c3cncnc32)C1` [Compound A13, 1-(3-(3-(4-phenoxyphenyl)-1H-pyrazolo[3,4-d]pyrimidin-1-yl)azetidin-1-yl)prop-2-en-1-one], the 50% inhibitory concentration (IC50) at ITK was > 0.5 µM; at BTK, 0.1 to 0.5 µM; on JAK3, > 0.5 µM; against TXK, 0.1 to 0.5 µM.
Consider `C=CC(=O)N1CCC[C@@H](n2nc(-c3ccc(Oc4ccccc4)cc3C)c3cncnc32)C1` [Compound A4, (R)-1-(3-(3-(2-methyl-4-phenoxyphenyl)-1H-pyrazolo[3,4-d]pyrimidin-1-yl)piperidin-1-yl)prop-2-en-1-one], for which the IC50 is > 0.5 µM against ITK, < 0.1 µM against BTK, > 0.5 µM on JAK3 and < 0.1 µM on TXK.
As to `C=CC(=O)N1CC(F)(F)C[C@H]1Cn1nc(-c2ccc(Oc3ccccc3)cc2)c2cncnc21` [Compound A41, (S)-1-(4,4-difluoro-2-((3-(4-phenoxyphenyl)-1H-pyrazolo[3,4-d]pyrimidin-1-yl)methyl)pyrrolidin-1-yl)prop-2-en-1-one], the IC50 against ITK was > 0.5 µM; against BTK it was < 0.1 µM; against JAK3 it was > 0.5 µM; against TXK it was < 0.1 µM.
Turning to `C=CC(=O)N1CCC[C@H]1Cn1nc(-c2ccc(Oc3ccccc3)cc2)c2cnccc21` [Compound A22, (S)-1-(2-((3-(4-phenoxyphenyl)-1H-pyrazolo[4,3-c]pyridin-1-yl)methyl)pyrrolidin-1-yl)prop-2-en-1-one], the IC50 against ITK was > 0.5 µM; at BTK, < 0.1 µM; at JAK3 it was > 0.5 µM; at TXK, < 0.1 µM.
Consider `CC#CC(=O)Nc1ccccc1Cn1nc(-c2ccc(Oc3ccccc3)cc2)c2cncnc21` [Compound A61, N-(2-((3-(4-phenoxyphenyl)-1H-pyrazolo[3,4-d]pyrimidin-1-yl)methyl)phenyl)but-2-ynamide], for which the IC50 was > 0.5 µM on ITK, > 0.5 µM on BTK, > 0.5 µM against JAK3 and < 0.1 µM against TXK.
In the case of `CC#CC(=O)N1CC(Cn2nc(-c3ccc(Oc4ccccc4)cc3)c3cncnc32)C1` [Compound A58, 1-(3-((3-(4-phenoxyphenyl)-1H-pyrazolo[3,4-d]pyrimidin-1-yl)methyl)azetidin-1-yl)but-2-yn-1-one], the IC50 against ITK, on BTK, at JAK3 and against TXK was > 0.5 µM in each case.
`CN(C)CC#CC(=O)N1CC2(CC(n3nc(-c4ccc(Oc5ccccc5)cc4)c4cncnc43)C2)C1` [Compound A75, 4-(dimethylamino)-1-(6-(3-(4-phenoxyphenyl)-1H-pyrazolo[3,4-d]pyrimidin-1-yl)-2-azaspiro[3.3]heptan-2-yl)but-2-yn-1-one]: the IC50 is 0.1 to 0.5 µM on ITK, < 0.1 µM against BTK, 0.1 to 0.5 µM at JAK3 and < 0.1 µM at TXK.
`CC#CC(=O)N[C@H]1CC[C@H](n2nc(-c3ccc(Oc4ccccc4)cc3)c3cncnc32)CC1` [Compound A70, N-((1r,4r)-4-(3-(4-phenoxyphenyl)-1H-pyrazolo[3,4-d]pyrimidin-1-yl)cyclohexyl)but-2-ynamide]: the IC50 on ITK, against BTK, against JAK3 and against TXK was > 0.5 µM in each case.
Regarding `CCC#CC(=O)N1CC2(CC(n3nc(-c4ccc(Oc5ccccc5)cc4)c4cncnc43)C2)C1` [Compound A71, 1-(6-(3-(4-phenoxyphenyl)-1H-pyrazolo[3,4-d]pyrimidin-1-yl)-2-azaspiro[3.3]heptan-2-yl)pent-2-yn-1-one], the IC50 against ITK was > 0.5 µM; against BTK, 0.1 to 0.5 µM; on JAK3, > 0.5 µM; at TXK it was 0.1 to 0.5 µM.
`C=CC(=O)N1CCC[C@@H](n2nc(-c3cccc(Oc4ccccc4)c3)c3cncnc32)C1` [Compound A1, (R)-1-(3-(3-(3-phenoxyphenyl)-1H-pyrazolo[3,4-d]pyrimidin-1-yl)piperidin-1-yl)prop-2-en-1-one]: the IC50 against ITK was > 0.5 µM; against BTK, < 0.1 µM; at JAK3, > 0.5 µM; at TXK, 0.1 to 0.5 µM.
Take `C=CC(=O)N1CCC[C@@H](n2nc(-c3ccc(Oc4ccccc4)cc3)c3cncc(F)c32)C1` [Compound A26, (R)-1-(3-(7-fluoro-3-(4-phenoxyphenyl)-1H-pyrazolo[4,3-c]pyridin-1-yl)piperidin-1-yl)prop-2-en-1-one]: the IC50 is > 0.5 µM against ITK, < 0.1 µM against BTK, > 0.5 µM against JAK3 and < 0.1 µM against TXK.
Regarding `C=CC(=O)N1CCC[C@H]1Cn1nc(-c2ccc(Oc3cccc(C(F)F)c3)cc2)c2cncnc21` [Compound A47, (S)-1-(2-((3-(4-(3-(difluoromethyl)phenoxy)phenyl)-1H-pyrazolo[3,4-d]pyrimidin-1-yl)methyl)pyrrolidin-1-yl)prop-2-en-1-one], the IC50 is > 0.5 µM against ITK, < 0.1 µM against BTK, > 0.5 µM on JAK3 and < 0.1 µM at TXK.
Consider `C=CC(=O)N1CCCC[C@H]1Cn1nc(-c2ccc(Oc3ccccc3)cc2)c2cncnc21` [Compound A44, (S)-1-(2-((3-(4-phenoxyphenyl)-1H-pyrazolo[3,4-d]pyrimidin-1-yl)methyl)piperidin-1-yl)prop-2-en-1-one], for which the half-maximal inhibitory concentration (IC50) at ITK is > 0.5 µM; on BTK, < 0.1 µM; against JAK3, > 0.5 µM; on TXK it was 0.1 to 0.5 µM.
As for `CC#CC(=O)N1CC[C@H]1Cn1nc(-c2ccc(Oc3ccccc3)cc2)c2cncnc21` [Compound A66, (S)-1-(2-((3-(4-phenoxyphenyl)-1H-pyrazolo[3,4-d]pyrimidin-1-yl)methyl)azetidin-1-yl)but-2-yn-1-one], the IC50 against ITK is > 0.5 µM; against BTK it was 0.1 to 0.5 µM; against JAK3 it was > 0.5 µM; on TXK, > 0.5 µM.
For `C=CC(=O)N[C@H]1CC[C@H](n2nc(-c3ccc(Oc4ccccc4)cc3)c3cncnc32)CC1` [Compound A56, N-((1r,4r)-4-(3-(4-phenoxyphenyl)-1H-pyrazolo[3,4-d]pyrimidin-1-yl)cyclohexyl)acrylamide], the IC50 at ITK, on BTK, on JAK3 and against TXK was > 0.5 µM in each case.
As for `CC#CC(=O)N1CCC[C@H]1c1nc(-c2ccc(Oc3ccccc3)cc2)c2cnccn12` [Compound A31, (S)-1-(2-(1-(4-phenoxyphenyl)imidazo[1,5-a]pyrazin-3-yl)pyrrolidin-1-yl)but-2-yn-1-one], the 50% inhibitory concentration (IC50) against ITK, against BTK, against JAK3 and on TXK was > 0.5 µM each time.

Values taken from patent publication US10870652B2, “Compounds and methods for modulating bruton's tyrosine kinase” (CORVUS PHARMACEUTICALS, INC., priority 2016, dated 2020).
